Tested on: 616215-338-R-J1-PDC complex spheroid viability
Assay: Anticancer human tumor 616215-338-R-J1-PDC patient-derived colon adenocarcinoma cell line growth inhibition [RAS]
Conditions: for IC50: curve of first compound; for viability, T/C: stronger effect = lower value
Method in brief: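 Agents were tested in combination matrices in half-log decrements from a top concentration at or near clinical Cmax (10 microM if undetermined). Targets were multi-cell spheroids of tumour lines plus HUVEC and MSC stromal cells.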
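Note: spheroids exposed to agents for seven days before viability readout.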
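Throughout, for viability, T/C: 100% = DMSO vehicle control viability.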

For C=CC(=O)N1CCN(c2nc(OCC3CCCN3C)nc3c(F)c(-c4nc(N)cc(C)c4C(F)(F)F)c(Cl)cc23)C(C)C1 (configuration not stated) + C#Cc1c(F)ccc2cc(O)cc(-c3ncc4c(N5CC6CCC(C5)N6)nc(OCC56CCCN5CC(F)C6)nc4c3F)c12, the IC50 (second compound 0.0316 µM) was > 1000 nM, the IC50 (second compound 0.1 µM) was > 1000 nM and the IC50 (second compound 0.316 µM) was > 1000 nM. The IC50 (second compound 1 µM) was > 1000 nM, the IC50 (second compound 3.16 µM) was > 1000 nM and the IC50 (second compound 10 µM) was > 1000 nM. It also gave a viability, T/C (second compound 0.0316 µM, first compound 0.00316 µM) of 107%, a viability, T/C (second compound 0.0316 µM, first compound 0.01 µM) of 112% and a viability, T/C (second compound 0.0316 µM, first compound 0.0316 µM) of 101%. The viability, T/C (second compound 0.0316 µM, first compound 0.1 µM) was 106%, the viability, T/C (second compound 0.0316 µM, first compound 0.316 µM) was 100% and the viability, T/C (second compound 0.0316 µM, first compound 1 µM) was 104%. For the same compound, the viability, T/C (second compound 0.1 µM, first compound 0.00316 µM) was 121%, the viability, T/C (second compound 0.1 µM, first compound 0.01 µM) was 105% and the viability, T/C (second compound 0.1 µM, first compound 0.0316 µM) was 109%. The viability, T/C (second compound 0.1 µM, first compound 0.1 µM) was 107%, the viability, T/C (second compound 0.1 µM, first compound 0.316 µM) was 108% and the viability, T/C (second compound 0.1 µM, first compound 1 µM) was 102%. It also gave a viability, T/C (second compound 0.316 µM, first compound 0.00316 µM) of 112%, a viability, T/C (second compound 0.316 µM, first compound 0.01 µM) of 104% and a viability, T/C (second compound 0.316 µM, first compound 0.0316 µM) of 109%. The viability, T/C (second compound 0.316 µM, first compound 0.1 µM) was 112%, the viability, T/C (second compound 0.316 µM, first compound 0.316 µM) was 107% and the viability, T/C (second compound 0.316 µM, first compound 1 µM) was 112%. It also gave a viability, T/C (second compound 1 µM, first compound 0.00316 µM) of 122%, a viability, T/C (second compound 1 µM, first compound 0.01 µM) of 123% and a viability, T/C (second compound 1 µM, first compound 0.0316 µM) of 114%. It also gave a viability, T/C (second compound 1 µM, first compound 0.1 µM) of 120%, a viability, T/C (second compound 1 µM, first compound 0.316 µM) of 124% and a viability, T/C (second compound 1 µM, first compound 1 µM) of 109%. It also gave a viability, T/C (second compound 3.16 µM, first compound 0.00316 µM) of 125%, a viability, T/C (second compound 3.16 µM, first compound 0.01 µM) of 107% and a viability, T/C (second compound 3.16 µM, first compound 0.0316 µM) of 109%. It also gave a viability, T/C (second compound 3.16 µM, first compound 0.1 µM) of 112%, a viability, T/C (second compound 3.16 µM, first compound 0.316 µM) of 109% and a viability, T/C (second compound 3.16 µM, first compound 1 µM) of 105%. It also gave a viability, T/C (second compound 10 µM, first compound 0.00316 µM) of 102%, a viability, T/C (second compound 10 µM, first compound 0.01 µM) of 93.8% and a viability, T/C (second compound 10 µM, first compound 0.0316 µM) of 92.8%. It also gave a viability, T/C (second compound 10 µM, first compound 0.1 µM) of 99.3%, a viability, T/C (second compound 10 µM, first compound 0.316 µM) of 110% and a viability, T/C (second compound 10 µM, first compound 1 µM) of 93%.

— PubChem BioAssay AID2060898 (Molecular Pharmacology Branch, DTP, NCI, 2025)
